Source: patent publication US11324798B2, “Materials and methods for treatment of inflammation” (CYTOGEL PHARMA, LLC, priority 2010, dated 2022)

System: mu opiate receptor
Assay: Binding to the mu opiate receptor

H-Tyr-Pro-Trp-Phe-NH2 [SEQ ID NO:1]
Potency for the mu opiate receptor: very potent
